Drawing on ChEMBL document CHEMBL1122100, “Pyridoquinoxaline N-oxides. 2. Synthesis and antibacterial activity of tricyclic lactams” (1982), this text covers MIC, ED50 and Protection for 9 compounds.

Converted amounts (≈) assume the structure as drawn. Bounds are passed on as bounds.

By MIC is commonly meant the lowest concentration found to suppress growth. High values mean a need for much substance, low ones inhibition by little substance.

The first assay has as its system Pasteurella multocida. The assay can be described thus: Tested in vitro for the minimum inhibitory concentration (MIC) against Pasteurella multocida. In kind it is functional.
Settings: not given
For `COC(=O)N/N=C/c1c[n+]([O-])c2ccccc2[n+]1[O-]` [CARBADOX], the MIC worked out at 0.78 µg/mL (≈ 2.97 µM).

For the compound `COCCN1CCc2c([n+]([O-])c3ccccc3[n+]2[O-])C1=O`, 3.12 µg/mL (≈ 10.8 µM) was the least that counted as inhibitory (MIC).

Regarding `O=C1c2c([n+]([O-])c3ccccc3[n+]2[O-])CCN1CCN1CCCCC1`, the MIC is 25 µg/mL (≈ 73 µM).

`CCN1CCc2c([n+]([O-])c3ccccc3[n+]2[O-])C1=O` gave a minimal inhibitory concentration (MIC) of 6.25 µg/mL (≈ 24.1 µM).

Take `O=C1c2c([n+]([O-])c3ccccc3[n+]2[O-])CCN1C1CCCCC1`: the MIC turned out to be 25 µg/mL (≈ 79.8 µM).

`O=C1c2c([n+]([O-])c3ccccc3[n+]2[O-])CCN1CCO`: the MIC came out at 12.5 µg/mL (≈ 45.4 µM).

`CN1CCc2c([n+]([O-])c3ccccc3[n+]2[O-])C1=O` registered a minimal inhibitory concentration (MIC) of 1.56 µg/mL (≈ 6.36 µM).

In the case of `C=CCN1CCc2c([n+]([O-])c3ccccc3[n+]2[O-])C1=O`, the MIC is 6.25 µg/mL (≈ 23 µM).

Consider `O=C1NCCc2c1[n+]([O-])c1ccccc1[n+]2[O-]`, for which the MIC was below 0.39 µg/mL.

For a further assay, the system named is Salmonella enterica. The assay is described as follows: Tested in vitro for the minimum inhibitory concentration (MIC) against Salmonella choleraesuis. Type of assay: functional.
Settings: not given
`COC(=O)N/N=C/c1c[n+]([O-])c2ccccc2[n+]1[O-]` [CARBADOX] gave an MIC of 0.19 µg/mL (≈ 0.725 µM).

The compound `COCCN1CCc2c([n+]([O-])c3ccccc3[n+]2[O-])C1=O` gave an MIC of 3.12 µg/mL (≈ 10.8 µM).

The compound `O=C1c2c([n+]([O-])c3ccccc3[n+]2[O-])CCN1CCN1CCCCC1` came in with an MIC of 1.56 µg/mL (≈ 4.56 µM).

For `CCN1CCc2c([n+]([O-])c3ccccc3[n+]2[O-])C1=O`, the MIC amounted to 1.56 µg/mL (≈ 6.02 µM).

Consider `O=C1c2c([n+]([O-])c3ccccc3[n+]2[O-])CCN1C1CCCCC1`, for which it took 50 µg/mL (≈ 160 µM) to inhibit growth (MIC).

`O=C1c2c([n+]([O-])c3ccccc3[n+]2[O-])CCN1CCO` returned an MIC of 12.5 µg/mL (≈ 45.4 µM).

As to `CN1CCc2c([n+]([O-])c3ccccc3[n+]2[O-])C1=O`, the MIC turned out to be 1.56 µg/mL (≈ 6.36 µM).

With `C=CCN1CCc2c([n+]([O-])c3ccccc3[n+]2[O-])C1=O`, the MIC was found to be 1.56 µg/mL (≈ 5.75 µM).

Compound `O=C1NCCc2c1[n+]([O-])c1ccccc1[n+]2[O-]` gave an MIC of 1.56 µg/mL (≈ 6.75 µM).

The test system of the next assay is Escherichia coli. The assay can be described thus: Tested in vivo for the antibacterial activity against Escherichia coli after oral administration in mice. In kind it is functional. Particulars: read-out: PD50.
Consider `COC(=O)N/N=C/c1c[n+]([O-])c2ccccc2[n+]1[O-]` [CARBADOX], for which the ED50 is 5.3 mg/kg.

Take `CN1CCc2c([n+]([O-])c3ccccc3[n+]2[O-])C1=O`: the ED50 was 8.53 mg/kg.

Another assay deals with Streptococcus pyogenes. The assay is described as follows: Tested in vitro for the minimum inhibitory concentration (MIC) against Strep. pyogenes. In kind it is functional.
Settings: not given
As for `COC(=O)N/N=C/c1c[n+]([O-])c2ccccc2[n+]1[O-]` [CARBADOX], the MIC was determined as 0.19 µg/mL (≈ 0.725 µM).

Take `COCCN1CCc2c([n+]([O-])c3ccccc3[n+]2[O-])C1=O`: it took 0.78 µg/mL (≈ 2.7 µM) to inhibit growth (MIC).

In turn, `O=C1c2c([n+]([O-])c3ccccc3[n+]2[O-])CCN1CCN1CCCCC1` returned an MIC below 0.39 µg/mL.

In turn, `CCN1CCc2c([n+]([O-])c3ccccc3[n+]2[O-])C1=O` showed an MIC of 1.56 µg/mL (≈ 6.02 µM).

As to `O=C1c2c([n+]([O-])c3ccccc3[n+]2[O-])CCN1C1CCCCC1`, 3.12 µg/mL (≈ 9.96 µM) was the least that counted as inhibitory (MIC).

For the compound `O=C1c2c([n+]([O-])c3ccccc3[n+]2[O-])CCN1CCO`, the minimum inhibitory concentration (MIC) stood at 6.25 µg/mL (≈ 22.7 µM).

With `CN1CCc2c([n+]([O-])c3ccccc3[n+]2[O-])C1=O`, the MIC was 1.56 µg/mL (≈ 6.36 µM).

Compound `C=CCN1CCc2c([n+]([O-])c3ccccc3[n+]2[O-])C1=O` had an MIC of 0.78 µg/mL (≈ 2.88 µM).

`O=C1NCCc2c1[n+]([O-])c1ccccc1[n+]2[O-]` registered a minimum inhibitory concentration (MIC) of 1.56 µg/mL (≈ 6.75 µM).

The subject of a further assay is Salmonella enterica. The assay can be described thus: Tested in vivo for the antibacterial activity against Salmonella choleraesuis after sc administration in mice. Type of assay: functional. Particulars: read-out: PD50.
Take `COC(=O)N/N=C/c1c[n+]([O-])c2ccccc2[n+]1[O-]` [CARBADOX]: the ED50 came to 5.44 mg/kg.

As to `CN1CCc2c([n+]([O-])c3ccccc3[n+]2[O-])C1=O`, the ED50 was determined as 2.96 mg/kg.

The next assay relates to Pasteurella multocida. The assay can be described thus: Tested in vivo for the antibacterial activity against Pasteurella multocida after sc administration in mice. Type of assay: functional. Particulars: read-out: PD50.
Take `COC(=O)N/N=C/c1c[n+]([O-])c2ccccc2[n+]1[O-]` [CARBADOX]: the ED50 stood at 4.05 mg/kg.

`CN1CCc2c([n+]([O-])c3ccccc3[n+]2[O-])C1=O`: the ED50 amounted to 3.8 mg/kg.

The test system of a further assay is Pasteurella multocida. The assay is described as follows: Tested in vivo for the antibacterial activity against Pasteurella multocida after oral administration in mice. Type of assay: functional. Particulars: read-out: PD50.
On to `COC(=O)N/N=C/c1c[n+]([O-])c2ccccc2[n+]1[O-]` [CARBADOX], for which the ED50 worked out at 6.14 mg/kg.

With `CN1CCc2c([n+]([O-])c3ccccc3[n+]2[O-])C1=O`, the ED50 turned out to be 4.7 mg/kg.

Another assay has as its system Escherichia coli. The assay is described as follows: Tested in vitro for the minimum inhibitory concentration (MIC) against Escherichia coli. Type of assay: functional.
Settings: not given
Compound `COC(=O)N/N=C/c1c[n+]([O-])c2ccccc2[n+]1[O-]` [CARBADOX] yielded an MIC of 0.39 µg/mL (≈ 1.49 µM).

With `COCCN1CCc2c([n+]([O-])c3ccccc3[n+]2[O-])C1=O`, the minimal inhibitory concentration (MIC) stood at 1.56 µg/mL (≈ 5.39 µM).

The compound `O=C1c2c([n+]([O-])c3ccccc3[n+]2[O-])CCN1CCN1CCCCC1` gave an MIC of 3.12 µg/mL (≈ 9.11 µM).

For the compound `CCN1CCc2c([n+]([O-])c3ccccc3[n+]2[O-])C1=O`, it took 3.12 µg/mL (≈ 12 µM) to inhibit growth (MIC).

As to `O=C1c2c([n+]([O-])c3ccccc3[n+]2[O-])CCN1C1CCCCC1`, the MIC came to 50 µg/mL (≈ 160 µM).

`O=C1c2c([n+]([O-])c3ccccc3[n+]2[O-])CCN1CCO` had an MIC of 12.5 µg/mL (≈ 45.4 µM).

Consider `CN1CCc2c([n+]([O-])c3ccccc3[n+]2[O-])C1=O`, for which the lowest concentration to inhibit growth (MIC) was 0.78 µg/mL (≈ 3.18 µM).

On to `C=CCN1CCc2c([n+]([O-])c3ccccc3[n+]2[O-])C1=O`, for which the MIC was determined as 3.12 µg/mL (≈ 11.5 µM).

Compound `O=C1NCCc2c1[n+]([O-])c1ccccc1[n+]2[O-]` returned an MIC of 1.56 µg/mL (≈ 6.75 µM).

For another assay, the system named is Escherichia coli. The assay can be described thus: Tested in vivo for the antibacterial activity against Escherichia coli after sc administration in mice. Type of assay: functional. Particulars: read-out: PD50.
On to `COC(=O)N/N=C/c1c[n+]([O-])c2ccccc2[n+]1[O-]` [CARBADOX], for which the ED50 amounted to 6.44 mg/kg.

Turning to `CN1CCc2c([n+]([O-])c3ccccc3[n+]2[O-])C1=O`, the ED50 worked out at 6.39 mg/kg.

In another assay the test system is Salmonella enterica. The assay can be described thus: Tested in vivo for the antibacterial activity against Salmonella choleraesuis after sc administration of 25 mg/kg in mice. In kind it is functional. Particulars: route subcutaneous.
Compound `COC(=O)N/N=C/c1c[n+]([O-])c2ccccc2[n+]1[O-]` [CARBADOX] had a Protection of 100%.

The compound `COCCN1CCc2c([n+]([O-])c3ccccc3[n+]2[O-])C1=O` displayed a Protection of 90%.

In the case of `O=C1c2c([n+]([O-])c3ccccc3[n+]2[O-])CCN1CCN1CCCCC1`, the Protection was 30%.

Turning to `CCN1CCc2c([n+]([O-])c3ccccc3[n+]2[O-])C1=O`, the Protection is 70%.

Turning to `O=C1c2c([n+]([O-])c3ccccc3[n+]2[O-])CCN1C1CCCCC1`, the Protection is listed as 0%.

Consider `O=C1c2c([n+]([O-])c3ccccc3[n+]2[O-])CCN1CCO`, for which the Protection was 0%.

`CN1CCc2c([n+]([O-])c3ccccc3[n+]2[O-])C1=O` had a Protection of 100%.

In turn, `C=CCN1CCc2c([n+]([O-])c3ccccc3[n+]2[O-])C1=O` returned a Protection of 30%.

The compound `O=C1NCCc2c1[n+]([O-])c1ccccc1[n+]2[O-]` showed a Protection of 80%.

For the next assay, the system named is Salmonella enterica. The assay can be described thus: Tested in vivo for the antibacterial activity against Salmonella choleraesuis after oral administration of 25 mg/kg in mice.
Settings: not given
Type of assay: functional.
On to `COC(=O)N/N=C/c1c[n+]([O-])c2ccccc2[n+]1[O-]` [CARBADOX], for which the Protection came to 100%.

Regarding `COCCN1CCc2c([n+]([O-])c3ccccc3[n+]2[O-])C1=O`, the Protection stood at 60%.

As to `O=C1c2c([n+]([O-])c3ccccc3[n+]2[O-])CCN1CCN1CCCCC1`, the Protection is reported as 0%.

As for `CCN1CCc2c([n+]([O-])c3ccccc3[n+]2[O-])C1=O`, the Protection was 50%.

With `O=C1c2c([n+]([O-])c3ccccc3[n+]2[O-])CCN1C1CCCCC1`, the Protection came out at 0%.

The compound `O=C1c2c([n+]([O-])c3ccccc3[n+]2[O-])CCN1CCO` came in with a Protection of 0%.

Take `CN1CCc2c([n+]([O-])c3ccccc3[n+]2[O-])C1=O`: the Protection is recorded as 100%.

The compound `C=CCN1CCc2c([n+]([O-])c3ccccc3[n+]2[O-])C1=O` had a Protection of 0%.

For the compound `O=C1NCCc2c1[n+]([O-])c1ccccc1[n+]2[O-]`, the Protection worked out at 0%.

A further assay deals with Salmonella enterica. The assay can be described thus: Tested in vivo for the antibacterial activity against Salmonella choleraesuis after oral administration in mice. Type of assay: functional. Particulars: read-out: PD50.
As to `COC(=O)N/N=C/c1c[n+]([O-])c2ccccc2[n+]1[O-]` [CARBADOX], the ED50 amounted to 4.47 mg/kg.

Consider `CN1CCc2c([n+]([O-])c3ccccc3[n+]2[O-])C1=O`, for which the ED50 turned out to be 5.1 mg/kg.
